pIC50, pKi: −log10 of the molar value. Values joined by “and” are separate entries in the source; they are usually repeats but may differ in a detail not shown here. Equal entries are not always repeated.
Columns and labels:
Butyrylcholinesterase = Butyrylcholinesterase (Equus caballus, UniProt Q9N1N9); assay: Inhibition of equine serum BuChE after 10 mins by Ellman's method
SH-SY5Y [1] = assay: Neuroprotective activity in human SH-SY5Y cells assessed as protection against rotenone/oligomycin-A-induced cell death at 1 uM after 24 hrs by MTT assay relative to control; assay type: functional
Acetylcholinesterase [2] = biological target: T1, Acetylcholinesterase (Electrophorus electricus, UniProt O42275); assay: Inhibition of Electrophorus electricus AChE after 10 mins by Ellman's method
SH-SY5Y [3] = assay: Neuroprotective activity in human SH-SY5Y cells assessed as protection against rotenone/oligomycin-A-induced cell death at 1 uM after 24 hrs by LDH release assay relative to control; assay type: functional
Acetylcholinesterase [4] = biological target: T1, Acetylcholinesterase; assay: Non competitive inhibition of Electrophorus electricus AChE by Lineweaver-Burke plot analysis
Acetylcholinesterase [5] = biological target: T1, Acetylcholinesterase; assay: Binding affinity to Electrophorus electricus AChE peripheral anionic site

Chain of Butyrylcholinesterase (Q9N1N9 whole entry): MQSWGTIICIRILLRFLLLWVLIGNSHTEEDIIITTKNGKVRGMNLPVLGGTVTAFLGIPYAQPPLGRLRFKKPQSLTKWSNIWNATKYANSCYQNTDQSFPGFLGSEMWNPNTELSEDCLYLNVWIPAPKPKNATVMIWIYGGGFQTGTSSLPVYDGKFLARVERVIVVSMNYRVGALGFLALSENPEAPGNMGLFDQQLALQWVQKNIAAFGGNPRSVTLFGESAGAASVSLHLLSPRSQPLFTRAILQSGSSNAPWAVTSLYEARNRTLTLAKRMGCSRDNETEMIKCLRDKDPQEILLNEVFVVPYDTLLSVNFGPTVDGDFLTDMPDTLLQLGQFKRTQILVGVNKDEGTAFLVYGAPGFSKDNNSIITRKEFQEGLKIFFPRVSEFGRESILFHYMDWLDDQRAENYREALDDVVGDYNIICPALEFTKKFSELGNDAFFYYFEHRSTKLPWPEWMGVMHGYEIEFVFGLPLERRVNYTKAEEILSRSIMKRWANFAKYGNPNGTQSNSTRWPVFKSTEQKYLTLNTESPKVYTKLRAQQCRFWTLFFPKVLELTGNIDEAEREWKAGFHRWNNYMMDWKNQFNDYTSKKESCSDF
T1 sequence (O42275 whole entry): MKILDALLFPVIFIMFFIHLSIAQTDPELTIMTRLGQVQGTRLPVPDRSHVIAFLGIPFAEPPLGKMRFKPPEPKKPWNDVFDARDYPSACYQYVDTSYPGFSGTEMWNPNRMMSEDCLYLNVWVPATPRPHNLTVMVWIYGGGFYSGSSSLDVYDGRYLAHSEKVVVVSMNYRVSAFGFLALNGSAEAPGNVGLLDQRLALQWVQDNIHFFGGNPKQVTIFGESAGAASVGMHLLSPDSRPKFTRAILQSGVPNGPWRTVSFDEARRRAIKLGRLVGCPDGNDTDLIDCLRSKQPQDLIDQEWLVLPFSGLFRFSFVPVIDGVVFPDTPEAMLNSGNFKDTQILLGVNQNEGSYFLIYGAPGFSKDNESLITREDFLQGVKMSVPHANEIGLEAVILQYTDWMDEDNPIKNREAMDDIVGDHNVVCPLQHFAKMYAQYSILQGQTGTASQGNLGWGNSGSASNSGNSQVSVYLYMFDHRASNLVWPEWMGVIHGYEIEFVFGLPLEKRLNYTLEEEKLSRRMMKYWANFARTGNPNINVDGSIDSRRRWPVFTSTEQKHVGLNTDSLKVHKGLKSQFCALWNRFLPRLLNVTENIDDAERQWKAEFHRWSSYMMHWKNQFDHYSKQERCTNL

`CN(C)c1nc(N)c(C#N)cc1C#N` gave a pIC50 (Butyrylcholinesterase) of less than 4.00, an Activity (SH-SY5Y [1]) of 12.9% and a pIC50 (Acetylcholinesterase [2]) of 4.64. For the same compound, the Activity (SH-SY5Y [3]) was 36.2%.

Compound `N#Cc1cc(C#N)c(N2CCCC2)nc1N` has a pIC50 (Butyrylcholinesterase) of less than 4.00, an Activity (SH-SY5Y [1]) of 20.1% and a pIC50 (Acetylcholinesterase [2]) of 5.46.

`N#Cc1cc(C#N)c(N2CCCCC2)nc1N` was tested, and the pIC50 (Butyrylcholinesterase) was 4.59, the Activity (SH-SY5Y [1]) was 10.2% and the pIC50 (Acetylcholinesterase [2]) was less than 4.00. The Activity (SH-SY5Y [3]) was 14.8%.

With `N#Cc1cc(C#N)c(N2C3CCC2CC3)nc1N` the pIC50 (Butyrylcholinesterase) was less than 4.00, the Activity (SH-SY5Y [1]) was 0% and the pIC50 (Acetylcholinesterase [2]) was less than 4.00.

`N#Cc1cc(C#N)c(N2CCC(O)CC2)nc1N` was tested, and the pIC50 (Butyrylcholinesterase) was less than 4.00, the Activity (SH-SY5Y [1]) was 3% and the pIC50 (Acetylcholinesterase [2]) was less than 4.00. The Activity (SH-SY5Y [3]) was 15.1%.

`N#Cc1cc(C#N)c(NCCO)nc1N` showed a pIC50 (Butyrylcholinesterase) of less than 4.00, an Activity (SH-SY5Y [1]) of 21.4% and a pIC50 (Acetylcholinesterase [2]) of less than 4.00. It also gave an Activity (SH-SY5Y [3]) of 3%.

Compound `C#CCNc1nc(N)c(C#N)cc1C#N` has a pIC50 (Butyrylcholinesterase) of less than 4.00, an Activity (SH-SY5Y [1]) of 17.7% and a pIC50 (Acetylcholinesterase [2]) of less than 4.00.

In the case of `N#Cc1cc(C#N)c(N2CCC(Cc3ccccc3)CC2)nc1N`, the pIC50 (Butyrylcholinesterase) was less than 4.00, the Activity (SH-SY5Y [1]) was 19.1% and the pIC50 (Acetylcholinesterase [2]) was less than 4.00.

`CN(C)c1nc(N)c(C#N)c(-c2ccccc2)c1C#N` was tested, and the pIC50 (Butyrylcholinesterase) was less than 4.00, the Activity (SH-SY5Y [1]) was 0% and the pIC50 (Acetylcholinesterase [2]) was less than 4.00.

Work on `N#Cc1c(N)nc(N2CCCCC2)c(C#N)c1-c1ccccc1` yielded a pIC50 (Butyrylcholinesterase) of less than 4.00, an Activity (SH-SY5Y [1]) of 2.7% and a pIC50 (Acetylcholinesterase [2]) of less than 4.00. It also gave an Activity (SH-SY5Y [3]) of 10.7%.

Work on `N#Cc1c(N)nc(N2C3CCC2CC3)c(C#N)c1-c1ccccc1` yielded a pIC50 (Butyrylcholinesterase) of 5.42, an Activity (SH-SY5Y [1]) of 0.7% and a pIC50 (Acetylcholinesterase [2]) of less than 4.00.

In the case of `N#Cc1c(N)nc(NCc2ccccc2)c(C#N)c1-c1ccccc1`, the pIC50 (Butyrylcholinesterase) was less than 4.00, the Activity (SH-SY5Y [1]) was 10.6% and the pIC50 (Acetylcholinesterase [2]) was less than 4.00.

Work on `COc1nc(N)c(C#N)cc1C#N` yielded a pIC50 (Butyrylcholinesterase) of less than 4.00, an Activity (SH-SY5Y [1]) of 11% and a pIC50 (Acetylcholinesterase [2]) of less than 4.00.

`CCOc1nc(N)c(C#N)cc1C#N` gave a pIC50 (Butyrylcholinesterase) of less than 4.00, an Activity (SH-SY5Y [1]) of 32.9% and a pIC50 (Acetylcholinesterase [2]) of less than 4.00. For the same compound, the Activity (SH-SY5Y [3]) was 10.9%.

For `N#Cc1cc(C#N)c(OCCCc2ccccc2)nc1N`, the pIC50 (Butyrylcholinesterase) was less than 4.00, the Activity (SH-SY5Y [1]) was 0% and the pIC50 (Acetylcholinesterase [2]) was less than 4.00.

For `N#Cc1c(N)nc(S)c(C#N)c1-c1ccccc1`, the pIC50 (Butyrylcholinesterase) was less than 4.00, the Activity (SH-SY5Y [1]) was 5.8% and the pIC50 (Acetylcholinesterase [2]) was less than 4.00. It also gave an Activity (SH-SY5Y [3]) of 14.1%.

`CN(C)c1nc(Cl)c(C#N)cc1C#N` was tested, and the pIC50 (Butyrylcholinesterase) was less than 4.00, the Activity (SH-SY5Y [1]) was 6% and the pIC50 (Acetylcholinesterase [2]) was 5.30.

In the case of `N#Cc1cc(C#N)c(N2CCCC2)nc1Cl`, the pIC50 (Butyrylcholinesterase) was less than 4.00, the Activity (SH-SY5Y [1]) was 7.5% and the pIC50 (Acetylcholinesterase [2]) was 6.10. The Activity (SH-SY5Y [3]) was 32%.

`N#Cc1cc(C#N)c(N2CCCCC2)nc1Cl` was tested, and the pKi (Acetylcholinesterase [4]) was 4.76, the pIC50 (Butyrylcholinesterase) was less than 4.00 and the Activity (SH-SY5Y [1]) was 14.7%. The pIC50 (Acetylcholinesterase [2]) was 5.02.

`N#Cc1cc(C#N)c(N2C3CCC2CC3)nc1Cl` was tested, and the pIC50 (Butyrylcholinesterase) was 4.62, the Activity (SH-SY5Y [1]) was 7.5% and the pIC50 (Acetylcholinesterase [2]) was 4.12. The Activity (SH-SY5Y [3]) was 31.6%.

`CN(C)c1nc(Cl)c(C#N)c(-c2ccccc2)c1C#N` showed a pIC50 (Butyrylcholinesterase) of less than 4.00, an Activity (SH-SY5Y [1]) of 0% and a pIC50 (Acetylcholinesterase [2]) of 5.00.

In the case of `N#Cc1c(Cl)nc(N2CCCC2)c(C#N)c1-c1ccccc1`, the pIC50 (Butyrylcholinesterase) was less than 4.00, the Activity (SH-SY5Y [1]) was 7.5% and the pIC50 (Acetylcholinesterase [2]) was 5.25. It also gave an Activity (SH-SY5Y [3]) of 37.7%.

For `N#Cc1c(Cl)nc(N2CCCCC2)c(C#N)c1-c1ccccc1`, the pIC50 (Butyrylcholinesterase) was less than 4.00, the Activity (SH-SY5Y [1]) was 0% and the pIC50 (Acetylcholinesterase [2]) was less than 4.00.

Work on `N#Cc1c(Cl)nc(N2C3CCC2CC3)c(C#N)c1-c1ccccc1` yielded a pIC50 (Butyrylcholinesterase) of less than 4.00, an Activity (SH-SY5Y [1]) of 12.9% and a pIC50 (Acetylcholinesterase [2]) of less than 4.00.

For `N#Cc1c(N)nc(Sc2ccccc2)c(C#N)c1-c1ccccc1`, the pIC50 (Butyrylcholinesterase) was less than 4.00, the Activity (SH-SY5Y [1]) was 11.2% and the pIC50 (Acetylcholinesterase [2]) was less than 4.00. The Activity (SH-SY5Y [3]) was 3.84%.

With `CC[N+](C)(CC)CCC[n+]1c(-c2ccccc2)c2cc(N)ccc2c2ccc(N)cc21` [PROPIDIUM] the pKi (Acetylcholinesterase [5]) was 5.07 and 5.05.

Source: ChEMBL document CHEMBL1212877, “Multipotent drugs with cholinergic and neuroprotective properties for the treatment of Alzheimer and neuronal vascular diseases. I. Synthesis, biological assessment, and molecular modeling of simple and readily available 2-aminopyridine-, and 2-chloropyridine-3,5-dicarbonitriles” (Bioorg Med Chem, 2010)
